Each cell line was assayed with CN1CCC(CC1)OC2=CC(=C(C=C2)NC3=NC=C4C(=N3)N(C(=O)N4C)C5CCCC5)OC [AZ3146] + C[C@]1(O)C[C@@H](c2nc(-c3ccc4ccc(-c5ccccc5)nc4c3)c3c(N)nccn32)C1 [Linsitinib] (partner 1 µM) (assay: relative viability (nuclei count vs DMSO), 5 days (fraction); higher = more cells survive). Conditions: first compound 0.08 µM.
In short: (§1)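 Each reported value is a median over duplicate plates. It expresses relative viability: treated-well nuclei count divided by vehicle-well nuclei count. Lung cancer cell lines in 1536-well plates were dosed by pin tool a day after seeding, alone with one drug or with a fixed anchor-drug dose plus five library-drug doses (not always all listed) in √10 steps, and nuclei were counted after 5 days.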

Cell Line	relative viability
RERF-LC-KJ	0.904
EMC-BAC-2	0.81
NCI-H1651	0.886
NCI-H2009	1.09
SK-MES-1	1.06
NCI-H727	0.319
SW 1573	0.912

Same assay, conditions: first compound 0.253 µM

Cell Line	relative viability
RERF-LC-KJ	0.902
EMC-BAC-2	0.756
NCI-H1651	1.07
NCI-H2009	1.22
SK-MES-1	1.06
NCI-H727	0.188
SW 1573	0.933

Same assay, conditions: first compound 0.8 µM

Cell Line	relative viability
RERF-LC-KJ	0.972
EMC-BAC-2	0.836
LCLC-97TM1	0.221
NCI-H1651	1.04
NCI-H2009	1.22
SK-MES-1	1.01
NCI-H727	0.35
SW 1573	0.823

Same assay, conditions: first compound 2.53 µM

Cell Line	relative viability
RERF-LC-KJ	0.876
EMC-BAC-2	0.791
LCLC-97TM1	0.164
NCI-H1651	0.989
NCI-H2009	1.27
SK-MES-1	1.09
NCI-H727	0.269
SW 1573	0.859

Same assay, conditions: first compound 8 µM

Cell Line	relative viability
RERF-LC-KJ	0.896
EMC-BAC-2	0.82
LCLC-97TM1	0.173
NCI-H1651	1
NCI-H2009	1.16
SK-MES-1	1.12
NCI-H727	0.26
SW 1573	0.708

The cell lines below were run with CN1CCC(CC1)OC2=CC(=C(C=C2)NC3=NC=C4C(=N3)N(C(=O)N4C)C5CCCC5)OC [AZ3146] + CC(=O)Nc1cccc(-n2c(=O)n(C3CC3)c(=O)c3c(Nc4ccc(I)cc4F)n(C)c(=O)c(C)c32)c1 [Trametinib] (partner 0.02 µM) in the same assay as above. Conditions: first compound 0.08 µM.
In short: as §1

Cell Line	relative viability
RERF-LC-KJ	0.848
LCLC-97TM1	0.268
NCI-H1651	0.736
NCI-H2009	0.286
SK-MES-1	0.549
NCI-H727	0.359
SW 1573	0.541

Same assay, conditions: first compound 0.253 µM

Cell Line	relative viability
RERF-LC-KJ	0.982
LCLC-97TM1	0.2
NCI-H1651	0.779
NCI-H2009	0.301
SK-MES-1	0.579
NCI-H727	0.365
SW 1573	0.63

Same assay, conditions: first compound 0.8 µM

Cell Line	relative viability
RERF-LC-KJ	0.796
EMC-BAC-2	0.89
LCLC-97TM1	0.157
NCI-H1651	0.833
NCI-H2009	0.271
SK-MES-1	0.585
NCI-H727	0.335
SW 1573	0.663

Same assay, conditions: first compound 2.53 µM

Cell Line	relative viability
RERF-LC-KJ	0.911
EMC-BAC-2	0.921
LCLC-97TM1	0.184
NCI-H1651	0.789
NCI-H2009	0.273
SK-MES-1	0.555
NCI-H727	0.417
SW 1573	0.591

Same assay, conditions: first compound 8 µM

Cell Line	relative viability
RERF-LC-KJ	0.769
EMC-BAC-2	0.844
LCLC-97TM1	0.223
NCI-H1651	0.797
NCI-H2009	0.238
SK-MES-1	0.544
NCI-H727	0.364
SW 1573	0.45

The cell lines below were run with CCOC(=O)CCNc1cc(N2CCc3ccccc3CC2)nc(-c2ccccn2)n1 [GSK-J4] + Cc1nc(NC(=O)N2CCC[C@H]2C(N)=O)sc1-c1ccnc(C(C)(C)C(F)(F)F)c1 [Alpelisib] (partner 2 µM) in the same assay as above. Conditions: first compound 0.5 µM.
In short: as §1

Cell Line	relative viability
RERF-LC-KJ	0.65
EMC-BAC-2	0.755
NCI-H1651	0.888
NCI-H2009	1.1
SK-MES-1	0.783
NCI-H727	0.549
SW 1573	0.669

Same assay, conditions: first compound 1.581 µM

Cell Line	relative viability
RERF-LC-KJ	0.732
EMC-BAC-2	0.717
NCI-H1651	0.814
NCI-H2009	1.16
SK-MES-1	0.968
SW 1573	0.715

Same assay, conditions: first compound 5 µM

Cell Line	relative viability
RERF-LC-KJ	0.803
EMC-BAC-2	0.785
LCLC-97TM1	0.271
NCI-H1651	0.957
NCI-H2009	1.08
SK-MES-1	0.842
NCI-H727	0.894
SW 1573	0.718

Same assay, conditions: first compound 15.81 µM

Cell Line	relative viability
RERF-LC-KJ	0.744
EMC-BAC-2	0.716
LCLC-97TM1	0.24
NCI-H1651	0.93
NCI-H2009	1.1
SK-MES-1	0.805
NCI-H727	0.621
SW 1573	0.721

Same assay, conditions: first compound 50 µM

Cell Line	relative viability
RERF-LC-KJ	0.551
EMC-BAC-2	0.691
LCLC-97TM1	0.164
NCI-H1651	0.892
NCI-H2009	0.966
SK-MES-1	0.819
NCI-H727	0.264
SW 1573	0.454

These cell lines were tested with CN1CCC(CC1)OC2=CC(=C(C=C2)NC3=NC=C4C(=N3)N(C(=O)N4C)C5CCCC5)OC [AZ3146] + CCNC(=O)c1noc(-c2cc(C(C)C)c(O)cc2O)c1-c1ccc(CN2CCOCC2)cc1 [Luminespib] (partner 0.01 µM) in the same assay as above. Conditions: first compound 0.08 µM.
In short: as §1

Cell Line	relative viability
RERF-LC-KJ	1.15
EMC-BAC-2	1.13
LCLC-97TM1	0.825
NCI-H1651	0.966
NCI-H2009	0.996
SK-MES-1	0.657
NCI-H727	0.465
SW 1573	0.699

Same assay, conditions: first compound 0.253 µM

Cell Line	relative viability
RERF-LC-KJ	1.2
EMC-BAC-2	1.16
LCLC-97TM1	0.673
NCI-H1651	0.881
NCI-H2009	1.06
SK-MES-1	0.581
NCI-H727	0.796
SW 1573	0.14

Same assay, conditions: first compound 0.8 µM

Cell Line	relative viability
RERF-LC-KJ	1.22
EMC-BAC-2	1.17
LCLC-97TM1	0.647
NCI-H1651	0.984
NCI-H2009	0.973
SK-MES-1	0.769
NCI-H727	0.458
SW 1573	0.393

Same assay, conditions: first compound 2.53 µM

Cell Line	relative viability
RERF-LC-KJ	1.29
EMC-BAC-2	1.31
LCLC-97TM1	0.814
NCI-H1651	0.761
NCI-H2009	1.06
SK-MES-1	0.847
NCI-H727	0.34
SW 1573	0.204

Same assay, conditions: first compound 8 µM

Cell Line	relative viability
RERF-LC-KJ	0.668
EMC-BAC-2	1.22
LCLC-97TM1	0.878
NCI-H1651	0.779
NCI-H2009	0.999
SK-MES-1	0.585
NCI-H727	0.302
SW 1573	0.273
